Laboratory results: the CheMixHub viscosity set
“And” between values parts separate entries of the source, which are not always exact repeats. Equal values may be shown once.

How the values were obtained:
[1] = xn = mol fraction of the nth substance listed

ClC(Cl)C(Cl)Cl
viscosity
Settings | 298.15 K | 303 K | 303.15 K | 313.15 K | 323.15 K
101 kPa | 1.632 mPa·s | – | 1.455 mPa·s and 1.521 mPa·s | – | –
101.3 kPa | – | – | 1.484 mPa·s | – | –
101.32 kPa | – | – | 1.45 mPa·s and 1.455 mPa·s | 1.367 mPa·s | 1.18 mPa·s
101.33 kPa | 1.581 mPa·s | 1.381 mPa·s | 1.455 mPa·s | – | 1.075 mPa·s

CO
Settings | viscosity
293.15 K, 100 kPa | 0.587 mPa·s and 0.55 mPa·s and 0.58 mPa·s
293.31 K, 101 kPa | 0.589 mPa·s
297.8 K, 101 kPa | 0.5495 mPa·s
298 K, 101.3 kPa | 0.59 mPa·s
298.15 K, 100 kPa | 0.5417 mPa·s
298.15 K, 101.33 kPa | 0.5365 mPa·s and 0.6152 mPa·s and 0.562 mPa·s
299 K, 101 kPa | 0.8138 mPa·s
303 K, 100 kPa | 0.5211 mPa·s and 0.5 mPa·s
303 K, 101.3 kPa | 0.5773 mPa·s
303.15 K, 100 kPa | 0.527 mPa·s
303.15 K, 101.33 kPa | 0.5054 mPa·s and 0.541 mPa·s
303.16 K, 101 kPa | 0.56 mPa·s
303.21 K, 101 kPa | 0.511 mPa·s
308.15 K, 100 kPa | 0.498 mPa·s and 0.491 mPa·s and 0.4987 mPa·s
308.15 K, 101.3 kPa | 0.474 mPa·s
308.56 K, 101 kPa | 0.476 mPa·s
313 K, 100 kPa | 0.4373 mPa·s and 0.42 mPa·s
313 K, 101.3 kPa | 0.455 mPa·s
313.15 K, 100 kPa | 0.471 mPa·s and 0.465 mPa·s
313.15 K, 101.33 kPa | 0.4423 mPa·s and 0.463 mPa·s
318.15 K, 100 kPa | 0.448 mPa·s and 0.442 mPa·s and 0.4456 mPa·s
321.15 K, 101.32 kPa | 0.4101 mPa·s
322.15 K, 101.32 kPa | 0.4068 mPa·s
322.9 K, 101 kPa | 0.3997 mPa·s
323.15 K, 100 kPa | 0.3905 mPa·s and 0.428 mPa·s and 0.421 mPa·s
323.15 K, 101.3 kPa | 0.396 mPa·s
323.15 K, 101.32 kPa | 0.401 mPa·s
323.15 K, 101.33 kPa | 0.3907 mPa·s and 0.406 mPa·s

CCCCCCN
viscosity
Settings | 303.15 K | 308.15 K | 313.15 K
101 kPa | 0.6979 mPa·s and 0.729 mPa·s and 0.7123 mPa·s | 0.6 mPa·s and 0.6 mPa·s | 0.6134 mPa·s
101.33 kPa | 0.7123 mPa·s | – | 0.6134 mPa·s

CC[n+]1ccccc1.N#C[N-]C#N
100 kPa
Settings | viscosity [mPa·s]
293.15 K | 22.1
298.15 K | 18.92
303.15 K | 16.44
308.15 K | 14.31
313.15 K | 12.48
318.15 K | 10.98

ClC(Cl)C(Cl)Cl + C1COCCO1
[1], 303.15 K, 101.33 kPa
Settings | viscosity [mPa·s]
x2 = 0.0869 | 1.441
x2 = 0.1835 | 1.419
x2 = 0.2833 | 1.392
x2 = 0.3491 | 1.372
x2 = 0.461 | 1.331
x2 = 0.5705 | 1.287
x2 = 0.6587 | 1.245
x2 = 0.7613 | 1.198
x2 = 0.8189 | 1.169
x2 = 0.908 | 1.128

COC(=O)OC + CCCCO
[1]
Settings | viscosity [mPa·s]
293.15 K, 101 kPa, x1 = 0.05212 | 2.427
293.15 K, 101 kPa, x1 = 0.09994 | 2.071
293.15 K, 101 kPa, x1 = 0.191 | 1.611
293.15 K, 101 kPa, x1 = 0.2904 | 1.291
293.15 K, 101 kPa, x1 = 0.4109 | 1.029
293.15 K, 101 kPa, x1 = 0.4555 | 0.957
293.15 K, 101 kPa, x1 = 0.6133 | 0.775
293.15 K, 101 kPa, x1 = 0.7008 | 0.71
293.15 K, 101 kPa, x1 = 0.8063 | 0.656
293.15 K, 101 kPa, x1 = 0.907 | 0.63
293.15 K, 101 kPa, x1 = 0.9512 | 0.636
293.15 K, 101.3 kPa, x1 = 0.0518 | 2.461
293.15 K, 101.3 kPa, x1 = 0.0975 | 2.119
293.15 K, 101.3 kPa, x1 = 0.1961 | 1.586
293.15 K, 101.3 kPa, x1 = 0.3064 | 1.218
293.15 K, 101.3 kPa, x1 = 0.4108 | 1.023
293.15 K, 101.3 kPa, x1 = 0.4769 | 0.929
293.15 K, 101.3 kPa, x1 = 0.6101 | 0.794
293.15 K, 101.3 kPa, x1 = 0.7043 | 0.719
293.15 K, 101.3 kPa, x1 = 0.8043 | 0.644
293.15 K, 101.3 kPa, x1 = 0.9052 | 0.607
293.15 K, 101.3 kPa, x1 = 0.9508 | 0.605
298.15 K, 101.3 kPa, x1 = 0.0527 | 2.192
298.15 K, 101.3 kPa, x1 = 0.1009 | 1.877
298.15 K, 101.3 kPa, x1 = 0.2002 | 1.411
298.15 K, 101.3 kPa, x1 = 0.2986 | 1.127
298.15 K, 101.3 kPa, x1 = 0.3974 | 0.952
298.15 K, 101.3 kPa, x1 = 0.5039 | 0.831
298.15 K, 101.3 kPa, x1 = 0.6008 | 0.748
298.15 K, 101.3 kPa, x1 = 0.7028 | 0.673
298.15 K, 101.3 kPa, x1 = 0.8011 | 0.611
298.15 K, 101.3 kPa, x1 = 0.8965 | 0.572
298.15 K, 101.3 kPa, x1 = 0.9503 | 0.569
303.15 K, 101 kPa, x1 = 0.0494 | 1.938
303.15 K, 101 kPa, x1 = 0.1058 | 1.648
303.15 K, 101 kPa, x1 = 0.2154 | 1.256
303.15 K, 101 kPa, x1 = 0.2915 | 1.077
303.15 K, 101 kPa, x1 = 0.4086 | 0.882
303.15 K, 101 kPa, x1 = 0.5007 | 0.769
303.15 K, 101 kPa, x1 = 0.5847 | 0.697
303.15 K, 101 kPa, x1 = 0.7003 | 0.622
303.15 K, 101 kPa, x1 = 0.798 | 0.581
303.15 K, 101 kPa, x1 = 0.9065 | 0.553
303.15 K, 101 kPa, x1 = 0.9587 | 0.551
303.15 K, 101.3 kPa, x1 = 0.0249 | 2.078
303.15 K, 101.3 kPa, x1 = 0.096 | 1.666
303.15 K, 101.3 kPa, x1 = 0.1911 | 1.304
303.15 K, 101.3 kPa, x1 = 0.2998 | 1.046
303.15 K, 101.3 kPa, x1 = 0.3877 | 0.903
303.15 K, 101.3 kPa, x1 = 0.4799 | 0.787
303.15 K, 101.3 kPa, x1 = 0.5865 | 0.681
303.15 K, 101.3 kPa, x1 = 0.6907 | 0.608
303.15 K, 101.3 kPa, x1 = 0.7931 | 0.564
303.15 K, 101.3 kPa, x1 = 0.8925 | 0.547
303.15 K, 101.3 kPa, x1 = 0.9464 | 0.542
313.15 K, 101 kPa, x1 = 0.04725 | 1.542
313.15 K, 101 kPa, x1 = 0.1216 | 1.252
313.15 K, 101 kPa, x1 = 0.2016 | 1.027
313.15 K, 101 kPa, x1 = 0.2876 | 0.857
313.15 K, 101 kPa, x1 = 0.3956 | 0.712
313.15 K, 101 kPa, x1 = 0.414 | 0.693
313.15 K, 101 kPa, x1 = 0.6043 | 0.552
313.15 K, 101 kPa, x1 = 0.6975 | 0.511
313.15 K, 101 kPa, x1 = 0.8019 | 0.484
313.15 K, 101 kPa, x1 = 0.9062 | 0.477
313.15 K, 101 kPa, x1 = 0.9368 | 0.479
313.15 K, 101.3 kPa, x1 = 0.0499 | 1.536
313.15 K, 101.3 kPa, x1 = 0.0998 | 1.351
313.15 K, 101.3 kPa, x1 = 0.2234 | 1.018
313.15 K, 101.3 kPa, x1 = 0.3 | 0.88
313.15 K, 101.3 kPa, x1 = 0.3991 | 0.752
313.15 K, 101.3 kPa, x1 = 0.5054 | 0.662
313.15 K, 101.3 kPa, x1 = 0.603 | 0.598
313.15 K, 101.3 kPa, x1 = 0.6904 | 0.557
313.15 K, 101.3 kPa, x1 = 0.8009 | 0.52
313.15 K, 101.3 kPa, x1 = 0.9014 | 0.497
313.15 K, 101.3 kPa, x1 = 0.9471 | 0.494
